Tests used:
[1] = target: T1, hMSH2:hMSH6 heterodimer (Homo sapiens, UniProt P43246+P52701); assay: Gel mobility shift assay of adenine nucleotide effects on mismatch binding and release; format: biochemical; conditions: for effect on G/T mismatch binding / release of the heterodimer from G/T-mismatched DNA substrate: nucleotide added to the mismatch binding reaction mixture, FIG. 3 at 25 and 250 micromolar; for IC50: G/T-mismatched DNA substrate, read-out: IC50 (concentration required to cause release of 50% of a population of heterodimers from a G/T-mismatched DNA substrate); for S-shifted material re-associated with the DNA as NS-shifted heterodimer: increasing amounts of nucleotide added
T1 construct: made in house; host or cells: SF9 insect cells, baculovirus (pFastBac dual)

[2] = target: T1, hMSH2:hMSH6 heterodimer; assay: ADP exchange assay (filter binding of [3H]-ADP); conditions: excess non-labeled ATP
Procedure: The ADP-ATP exchange rate was determined in a reaction mixture which comprised Buffer Q, 2.3 micromolar [^3H]-ADP, and 60 nanomolar hMSH2:hMSH6 heterodimer. Buffer Q comprised 25 millimolar HEPES which had been adjusted to pH 7.8 using NaOH, 75 millimolar NaCl, 10 millimolar MgCl2, 1 millimolar DTT, and 15% (v/v) glycerol. This reaction mixture was incubated for ten minutes at room temperature. 240 nanomolar G/T-mismatched 39-base pair DNA substrate was added to the reaction mixture, and the incubation was continued for an additional ten minutes. The final volume of the reaction mixture was 10 microliters. […] Reactions were incubated at 25° C. for a selected time and then halted by diluting the reaction mixture with 4 milliliters of an ice-cold stop buffer comprising 25 millimolar HEPES which had been adjusted to pH 7.8 using NaOH, 100 millimolar NaCl, and 10 millimolar MgCl2.
Each halted reaction mixture was immediately filtered on a HAWP nitrocellulose membrane (Millipore, Bedford, Mass.) and washed thrice with 4 milliliters of the ice-cold stop buffer. […] Radioactivity retained on the filters was quantified using a Beckman scintillation counter. […] The amount of [^3H]-ADP retained on the membrane to which the control reaction mixture was applied was considered to correspond to the amount of radioactivity retained when 100% of the complex had [^3H]-ADP bound thereto.

[3] = system: homologous 81-base pair DNA substrate; assay: Gel mobility shift and DNase footprint assays of heterodimer binding to homoduplex DNA; conditions: homoduplex concentrations greater than 400 nanomolar
Procedure: Gel mobility shift assays were performed by incubating a hMSH2:hMSH6 heterodimer and 9 femtomoles of either the ^32P-labeled homologous 81-base pair DNA substrate or the ^32P-labeled G/T-mismatched 81-base pair DNA substrate in a buffer comprising 50 millimolar NaCl, 25 millimolar HEPES buffer which had been adjusted to pH 7.5 using NaOH, 1 millimolar DTT, 0.01 millimolar EDTA, and 15% (v/v) glycerol. The buffer included 10 nanograms per microliter of poly dI-dC (Pharmacia LKB Biotechnology Inc., Piscataway, N.J.). […] In certain experiments described herein, the incubation mixture further comprised selected concentrations of nucleotides or non-labeled DNA. In other experiments described herein, the incubation mixture further comprised 1 millimolar MgCl2 or 5 millimolar EDTA. […] Each incubation mixture was applied to a gel comprising 4% (w/v) polyacrylamide (29:1 ratio of acrylamide:bis-acrylamide) 4% (v/v) glycerol, 40 millimolar Tris acetate buffer (pH 7.8), and 1 millimolar EDTA. Electrophoresis was performed by applying 200 volts to the gel for two hours. Following electrophoresis, each gel was dried and quantitated using a phosphoimaging device obtained from Molecular Dynamics. […]

[4] = system: G/T-mismatched 81-base pair DNA substrate; assay: Gel mobility shift and DNase footprint assays of heterodimer binding to mismatched DNA
Procedure: Gel mobility shift assays were performed by incubating a hMSH2:hMSH6 heterodimer and 9 femtomoles of either the ^32P-labeled homologous 81-base pair DNA substrate or the ^32P-labeled G/T-mismatched 81-base pair DNA substrate in a buffer comprising 50 millimolar NaCl, 25 millimolar HEPES buffer which had been adjusted to pH 7.5 using NaOH, 1 millimolar DTT, 0.01 millimolar EDTA, and 15% (v/v) glycerol. The buffer included 10 nanograms per microliter of poly dI-dC (Pharmacia LKB Biotechnology Inc., Piscataway, N.J.). […] In certain experiments described herein, the incubation mixture further comprised selected concentrations of nucleotides or non-labeled DNA. In other experiments described herein, the incubation mixture further comprised 1 millimolar MgCl2 or 5 millimolar EDTA. […] Each incubation mixture was applied to a gel comprising 4% (w/v) polyacrylamide (29:1 ratio of acrylamide:bis-acrylamide) 4% (v/v) glycerol, 40 millimolar Tris acetate buffer (pH 7.8), and 1 millimolar EDTA. Electrophoresis was performed by applying 200 volts to the gel for two hours. Following electrophoresis, each gel was dried and quantitated using a phosphoimaging device obtained from Molecular Dynamics.
Incubation of the hMSH2:hMSH6 heterodimer with ^32P-labeled DNA substrates was performed as described for gel mobility shift assays, except that 18 femtomoles of 32p-labeled DNA substrate was used in each assay. Following incubation, 80 microliters of a buffer comprising 50 millimolar NaCl, 25 millimolar HEPES buffer which had been adjusted to pH 7.8 using NaOH, 1 millimolar DTT, 10 nanograms per microliter poly dI-dC, 1.25 millimolar CaCl2, 3.1 millimolar MgCl2, 10% (v/v) glycerol, and 33 picograms per microliter DNase (Boehringer Mannheim, Indianapolis, Ind.) was added to each incubation mixture. […]

[5] = target: T2, hMSH2:hMSH6 heterodimer ATPase (Homo sapiens, UniProt P43246+P52701); assay: ATPase assays (steady state and initial velocity); format: biochemical
T2 construct: made in house; host or cells: SF9 insect cells, baculovirus (pFastBac dual)
Procedure: Buffer P comprised 40 millimolar HEPES which had been adjusted to pH 7.8 using NaOH, 75 millimolar NaCl, 10 millimolar MgCl2, 1.75 millimolar DTT, and 0.075 millimolar EDTA, and 15% (v/v) glycerol. Steady state reaction measurements were made using 60 nanomolar hMSH2:hMSH6 heterodimer and either 240 nanomolar homoduplex 39-base pair DNA substrate or 240 nanomolar G/T mismatched 39-base pair DNA substrate. Reaction mixtures were incubated at 37° C. for thirty minutes, and the reaction was stopped by addition of 400 microliters of a solution comprising 10% (w/v) activated charcoal (Sigma Chemical Co., St. Louis, Mo.) and 1 millimolar EDTA. Charcoal was pelleted by centrifuging the mixture at 10,000 rotations per minute for ten minutes. The 32p content of duplicate 100 microliter aliquots of the supernatant was assessed by liquid scintillation.
Aliquots were removed at selected times and electrophoresed as described herein. A control aliquot was removed and prepared for electrophoresis prior to addition of the MgCl2-containing Buffer P to the reaction mixture.
TLC was performed as previously described (Fishel et al., 1988, Proc. Natl. Acad. Sci. USA 85:36-40).

[6] = target: T3, hMSH2:hMSH6 heterodimer (Homo sapiens, UniProt P43246;P52701 P43246:1-934,P52701:1-1360); assay: EMSA; apparent Kd; no adenine nucleotide, no Mg; 50 mM NaCl, HEPES pH 7.5, poly dI-dC, 37 C; conditions: tags: 6xHis at N-terminus of hMSH6; Sf9 baculovirus (pFastBac dual) co-expression; label: 32P 5' end; single G/T mismatch
Procedure: (§1) The buffer included 10 nanograms per microliter of poly dI-dC (Pharmacia LKB Biotechnology Inc., Piscataway, N.J.). […] In certain experiments described herein, the incubation mixture further comprised selected concentrations of nucleotides or non-labeled DNA. In other experiments described herein, the incubation mixture further comprised 1 millimolar MgCl₂ or 5 millimolar EDTA. […] Each incubation mixture was applied to a gel comprising 4% (w/v) polyacrylamide (29:1 ratio of acrylamide:bis-acrylamide) 4% (v/v) glycerol, 40 millimolar Tris acetate buffer (pH 7.8), and 1 millimolar EDTA. Electrophoresis was performed by applying 200 volts to the gel for two hours. Following electrophoresis, each gel was dried and quantitated using a phosphoimaging device obtained from Molecular Dynamics.
(§2) The apparent dissociation constant (Kd) was determined in a simple buffer system comprising neither an adenine nucleotide nor magnesium using the homologous 81-base pair DNA substrate and the G/T-mismatched 81-base pair DNA substrate described herein.

[7] = target: T3, hMSH2:hMSH6 heterodimer; assay: footprint; DNase footprint; about 25 nt asymmetrically protected on both strands; no adenine nucleotide; conditions: tags: 6xHis at N-terminus of hMSH6; Sf9 baculovirus (pFastBac dual) co-expression; label: 32P 5' end; single G/T mismatch
Procedure: as §2

[8] = target: T3, hMSH2:hMSH6 heterodimer; assay: EMSA; no NS product observed with 39-bp homoduplex; conditions: tags: 6xHis at N-terminus of hMSH6; Sf9 baculovirus (pFastBac dual) co-expression; fully complementary homoduplex
Procedure: as §1

[9] = 0.2 millimolar ATP, 1 millimolar MgCl2, ADP 0 to 3.2 millimolar
[10] = ATP alone as a substrate (absence of DNA)
[11] = ATP and G/C-mismatched DNA as substrates
[12] = ATP and G/T-mismatched DNA as substrates

T1 sequence (P43246 whole entry): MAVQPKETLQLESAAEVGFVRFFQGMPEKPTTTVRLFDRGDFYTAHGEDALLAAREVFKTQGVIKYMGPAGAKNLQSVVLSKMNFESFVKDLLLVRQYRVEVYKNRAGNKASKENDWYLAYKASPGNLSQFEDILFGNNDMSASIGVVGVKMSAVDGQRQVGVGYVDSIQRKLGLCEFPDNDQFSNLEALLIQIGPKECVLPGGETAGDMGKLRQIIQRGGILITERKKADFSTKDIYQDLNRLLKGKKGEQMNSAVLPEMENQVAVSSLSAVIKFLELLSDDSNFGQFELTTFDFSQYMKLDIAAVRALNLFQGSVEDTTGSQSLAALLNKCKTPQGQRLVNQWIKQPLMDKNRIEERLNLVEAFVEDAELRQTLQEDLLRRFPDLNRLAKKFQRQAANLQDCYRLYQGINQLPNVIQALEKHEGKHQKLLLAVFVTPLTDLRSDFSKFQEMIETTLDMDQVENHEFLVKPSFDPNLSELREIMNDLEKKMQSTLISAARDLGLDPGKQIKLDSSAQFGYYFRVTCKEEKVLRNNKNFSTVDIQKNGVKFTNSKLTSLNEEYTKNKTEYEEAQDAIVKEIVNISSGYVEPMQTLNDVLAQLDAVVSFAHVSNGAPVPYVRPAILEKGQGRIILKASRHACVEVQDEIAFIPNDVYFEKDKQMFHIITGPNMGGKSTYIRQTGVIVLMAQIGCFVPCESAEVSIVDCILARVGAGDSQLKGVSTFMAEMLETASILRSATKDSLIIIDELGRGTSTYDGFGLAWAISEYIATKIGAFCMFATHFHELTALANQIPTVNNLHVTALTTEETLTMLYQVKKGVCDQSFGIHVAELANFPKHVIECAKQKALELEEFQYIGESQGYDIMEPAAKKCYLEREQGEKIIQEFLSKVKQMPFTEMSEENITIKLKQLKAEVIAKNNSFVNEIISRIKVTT
T1 sequence (P52701 whole entry): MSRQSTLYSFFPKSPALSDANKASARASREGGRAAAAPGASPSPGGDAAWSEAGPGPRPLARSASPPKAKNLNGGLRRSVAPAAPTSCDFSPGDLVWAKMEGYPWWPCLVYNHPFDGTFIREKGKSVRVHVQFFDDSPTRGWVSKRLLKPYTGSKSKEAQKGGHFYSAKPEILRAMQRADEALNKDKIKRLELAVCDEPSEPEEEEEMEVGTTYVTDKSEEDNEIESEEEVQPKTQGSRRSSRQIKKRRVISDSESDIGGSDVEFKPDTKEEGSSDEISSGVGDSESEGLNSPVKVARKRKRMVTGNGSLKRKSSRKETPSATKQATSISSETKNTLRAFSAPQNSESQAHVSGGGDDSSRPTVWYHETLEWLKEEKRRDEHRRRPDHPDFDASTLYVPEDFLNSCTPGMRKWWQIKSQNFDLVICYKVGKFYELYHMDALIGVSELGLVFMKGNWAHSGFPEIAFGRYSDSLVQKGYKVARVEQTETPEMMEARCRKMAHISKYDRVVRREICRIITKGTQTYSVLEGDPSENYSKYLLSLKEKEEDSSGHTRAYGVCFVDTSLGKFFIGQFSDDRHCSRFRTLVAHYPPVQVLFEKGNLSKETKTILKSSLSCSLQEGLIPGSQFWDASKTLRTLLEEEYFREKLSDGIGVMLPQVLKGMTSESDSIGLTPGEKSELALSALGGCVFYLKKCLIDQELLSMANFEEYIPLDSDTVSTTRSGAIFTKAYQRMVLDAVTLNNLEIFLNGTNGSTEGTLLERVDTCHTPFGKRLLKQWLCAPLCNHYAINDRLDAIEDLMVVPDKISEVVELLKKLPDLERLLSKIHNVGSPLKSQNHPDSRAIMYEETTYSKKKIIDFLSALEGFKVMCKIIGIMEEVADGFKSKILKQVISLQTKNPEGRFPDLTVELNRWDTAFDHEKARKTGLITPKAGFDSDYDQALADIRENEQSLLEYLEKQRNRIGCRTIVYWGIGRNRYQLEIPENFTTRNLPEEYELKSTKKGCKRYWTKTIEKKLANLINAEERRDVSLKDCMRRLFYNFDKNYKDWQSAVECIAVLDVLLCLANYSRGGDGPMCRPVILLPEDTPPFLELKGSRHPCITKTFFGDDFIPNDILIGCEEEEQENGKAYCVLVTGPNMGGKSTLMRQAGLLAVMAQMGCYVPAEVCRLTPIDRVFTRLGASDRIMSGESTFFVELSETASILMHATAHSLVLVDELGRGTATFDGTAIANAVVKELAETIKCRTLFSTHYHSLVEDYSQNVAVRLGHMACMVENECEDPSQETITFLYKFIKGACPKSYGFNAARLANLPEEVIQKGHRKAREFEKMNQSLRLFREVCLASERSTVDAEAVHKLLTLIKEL
T2 sequence (P43246 whole entry): as the sequence (P43246 whole entry) above
T2 sequence (P52701 whole entry): as the sequence (P52701 whole entry) above
T3 sequence (P43246 whole entry, chain 1 of 2): as the sequence (P43246 whole entry) above
T3 sequence (P52701 whole entry, chain 2 of 2): as the sequence (P52701 whole entry) above

## Nc1ncnc2c1ncn2[C@H]1C[C@H](O)[C@@H](COP(=O)(O)OP(=O)(O)OP(=O)(O)O)O1 [dATP, 2′-deoxy adenosine triphosphate]
[1]
  effect on G/T mismatch binding / release of the heterodimer from G/T-mismatched DNA substrate: caused release

## Nc1ncnc2c1ncn2[C@@H]1O[C@H](COP(=O)(O)OP(=O)(O)O)[C@@H](O)[C@H]1O [ADP]
[2]; absence of DNA
  half-life of the ADP-bound heterodimer: greater than eight hundred
[2]; presence of G/T-mismatched DNA substrate
  half-life of the ADP-bound heterodimer: less than two
[1]; [9]
  excess of ADP giving approximately complete reversal of ATP-caused substrate release: 16 fold
  excess of ADP to ATP giving reversal of approximately half of the ATP-caused substrate release: 2- to 3 fold
[1]
  effect on G/T mismatch binding / release of the heterodimer from G/T-mismatched DNA substrate: increased binding affinity

## Nc1ncnc2c1ncn2[C@@H]1O[C@H](COP(=O)(O)OP(=O)(O)CP(=O)(O)O)[C@@H](O)[C@H]1O [AMP-PCP, adenyl-(beta-, gamma-methylene)-diphosphonate]
[1]
  effect on G/T mismatch binding / release of the heterodimer from G/T-mismatched DNA substrate: Failure of AMP-PNP and AMP-PCP to stimulate release

## Nc1ncnc2c1ncn2[C@@H]1O[C@H](COP(=O)(O)OP(=O)(O)NP(=O)(O)O)[C@@H](O)[C@H]1O [AMP-PNP, adenylyl-imidodiphosphate]
[1]
  effect on G/T mismatch binding / release of the heterodimer from G/T-mismatched DNA substrate: Failure of AMP-PNP and AMP-PCP to stimulate release

## Adenosine-5′-O-3-thiotriphosphate [ATP-gamma-S]
[1]
  IC50: 3000 nM
  S-shifted material re-associated with the DNA as NS-shifted heterodimer: approximately 15%
[1]; following incubation at 37° C., time not stated
  mismatched DNA substrate binding activity recovered after magnesium addition: about 22%

## hMSH2:hMSH6 heterodimer: purified human mismatch recognition complex of hMSH2 and six-histidine-tagged hMSH6, overexpressed in SF9 insect cells
[3]
  saturability of binding of non-mismatched DNA: not saturable
[4]; 400-fold excess of non-labeled homoduplex DNA, no ATP
  half-life of the G/T-mismatched DNA substrate-bound heterodimer: greater than ten
[4]; buffer comprising neither an adenine nucleotide nor magnesium, gel shift and DNase footprint assays, read-out: apparent dissociation constant (Kd) for G/T mismatches
  Kd: ~20 nM
[4]; compared with literature values for hMSH2 alone
  efficiency of binding to a G/T mismatch relative to hMSH2 alone: at least ten

## Nc1ncnc2c1ncn2[C@@H]1O[C@H](COP(=O)(O)OP(=O)(O)OP(=O)(O)O)[C@@H](O)[C@H]1O [ATP]
[1]; 15 micromolar nucleotide, ten minutes of incubation at 37° C.
  mismatched DNA substrate binding activity recovered after magnesium addition: ~70%
[1]
  IC50: ~3000 nM
  S-shifted material re-associated with the DNA as NS-shifted heterodimer: approximately 15%
[1]; homoduplex DNA
  effect on binding of the heterodimer to homoduplex DNA (NS binding): not affected
[5]; 37° C.
  calculated Kcat for ATP: > 0.333 s⁻¹
[5]; [10]
  Km: ~10 µM
  kcat: about 0.9 minute^1
[5]; [11]
  Km: ~23 µM
  kcat: about 7.4 minute-^1
[5]; [12]
  Km: ~46 µM
  kcat: about 26 minute-^1

B1: G/T-mismatched 81-bp duplex (dsDNA)
DNA 1: AAAGCTGGAGCTGAAGCTTAGCTTAGGATCATCGAGGATCGAGCTCGGTGCAATTCAGCGGTACCCAATTCGCCCTATAGT
DNA 2: ACTATAGGGCGAATTGGGTACCGCTGAATTGCACCGAGCTTGATCCTCGATGATCCTAAGCTAAGCTTCAGCTCCAGCTTT
modifications: [G41 (strand 1) opposite T41 (strand 2), G/T mismatch]
[6]
  Kd: 20 nM
[7]
  Kd: 20 nM

B2: homologous 39-bp duplex (dsDNA)
DNA 1: CGGCGAATTCCACCAAGCTTGATCGCTCGAGGTACCAGG
DNA 2: CCTGGTACCTCGAGCGATCAAGCTTGGTGGAATTCGCCG
[8]
  binding result: no binding

— patent US20020058275A1, “Compositions, kits, and methods for effecting adenine nucleotide modulation of DNA mismatch recognition proteins” (Thomas Jefferson University, priority 1997, published 2002)
